# Entries after “also recorded” stand apart in the source; their conditions may differ.
# What was measured:
# [1] = tested on: murine optic nerves; conditions: mice on diet containing 0.3% cuprizone; cited from earlier work
# [2] = tested on: murine optic nerves; experiment: PPD staining and electron microscopy of optic nerve sections, cuprizone demyelination and remyelination after OPC transplant; assay type: in vivo, mice
# Experimental: (§1) Cuprizone is a copper chelator, which causes apoptosis of mature oligodendroglia, followed by microglial recruitment, and phagocytosis of myelin. Demyelination was induced by feeding mice a diet containing 0.3% cuprizone for 9 weeks. […] Peak demyelination occurred at 6-7 weeks with spontaneous remyelination occurring 2-4 weeks after transition to regular diet. Efficacy of OPC transplants upon reintroduction of regular diet was evaluated. Assessment of remyelination following transplant was performed as described elsewhere (Deb et al., PLoS One, 5:e12478 (2010)). Briefly, semi-thin sections of optic nerves were stained with para-phenylenediamine, imaged at 100× magnification following a predetermined sampling scheme, and analyzed using automated ImageJ macros to measure myelinated fibers.
# For collection of optic nerves and brain tissue, mice were perfused with 4% paraformaldehyde or Trump's fixative, and CNS tissues were post-fixed in the respective solution for 24 hours.
# Cuprizone is a copper chelator that causes apoptosis of mature oligodendroglia, followed by microglial recruitment and phagocytosis of myelin. Demyelination was induced by feeding mice a diet containing 0.3% cuprizone for 9 weeks. […] Peak demyelination occurs at 6-7 weeks with spontaneous remyelination occurring 2-4 weeks after transition to regular diet. […] Optical coherence tomography (OCT) provided quantitative assessment of neuroretinal integrity. The retinal layers measured along the green line in FIG. 4E in a healthy mouse (FIG. 4F). Note the clear retinal nerve fiber layer (RNFL), as outlined in FIG. 4H. The retinal layers measured along the yellow line in FIG. 4E in a healthy mouse (FIG. 4G). Note the thick ganglion cell layer (GCL), as outlined in FIG. 4H. Head mount surgery for placement of VEP electrodes and recording locations (FIG. 4I-K). Visual evoked potentials (VEPs) measured in the visual cortex induced by a 0.3 Hz light pulse (FIG. 4L). […] VEP averaging is used to establish measurements of evoked potential amplitude, latency, and pulse width (FIG. 4M). […]
# [3] = tested on: optic nerve of cuprizone-fed mice; experiment: Visual evoked potentials (VEP) in cuprizone-fed mice with or without OPC transplant; assay type: in vivo
# Experimental: as §1
# Maintaining a sterile field, 1.0 μL of media containing >10^4 OPCs were injected into the vitreous humor of anesthetized mice, using a custom 34-gauge needle mounted on a 5 μL Hamilton syringe. Despite the small dimensions of the murine eye and the high needle gauge, OPCs were consistently and reproducibly delivered into the vitreous cavity with this method, and transferred cells were imaged using fluorescent fundus imaging of the mouse eye (evidence from >30 mice; data not included) (FIG. 6A).
# To measure the functional outcomes of OPC transplantation, VEPs were recorded. Intracranial supradural screw electrodes (plastics1.com 8L0X3905201F) were implanted over the visual cortex as described elsewhere (Deb et al., (2010) PLoS One 5:e12478) (FIG. 4I-4K). After dark adaptation, mice were placed in a recording chamber connected to a recording system (8200-K1-SE3, Pinnacle Technology) using an implanted EEG headmount (8235-SM, Pinnacle Tech) tethered to a preamplifier (8202-SE3, Pinnacle Tech) and an analog-to-digital converter. Mice were visually stimulated by an on-axis flashing LED. VEPs were recorded with varying stimulus blocks from 0.1 Hz to 1000 Hz (controlled via a programmable Arduino Diecimila). Recording parameters measured latency to N1 (the first negative peak following stimulation), amplitude range between Nmax-Pmax (first positive peak after stimulation), number of stimuli not followed by a response, duration of visual evoked response, pulse width of Pmax. Any delay in conduction velocity through the optic nerve increased time to N1, whereas axonal degeneration led to decrease in amplitude range, and an increase in response duration as well as increased pulse width due to non-synchronous firing of neurons, providing a very sensitive measure of optic nerve function.
# Mice were subjected to electrode implantation surgery and either received OPC transplant or served as controls (FIGS. 7A-C), and visual evoked potential (VEP) averaging was used to establish measurements of evoked potential amplitude, latency, and peak pulse-width (FIG. 7D). Representative waveforms of VEP recordings in a healthy control animal (FIG. 7E), cuprizone-fed animal (FIG. 7F), and cuprizone-fed animal transplanted with OPCs (FIG. 7G). Latency was measured as the time from the visual stimulus to the first negative peak in the VEP impulse (FIG. 7H). An increased latency indicated decreased conduction velocity as a result of loss of myelin and Nodes of Ranvier. […] Peak width was measured as the duration of the first positive impulse at half-maximum amplitude. […]
# [4] = 0.3 Hz stimulation frequency, cuprizone-fed animal compared to regular diet (FIG. 4N)
compound,measurement,setting,value
O=C(NN=C1CCCCC1)C(=O)NN=C1CCCCC1 [cuprizone],time of peak demyelination,[1],6-7 weeks
same,"optic nerve myelination, PPD staining of semi-thin sections",[2]; after 6 weeks of cuprizone treatment,profound demyelination
same,"optic nerve myelination, PPD staining of semi-thin sections",[2]; after 9 weeks of cuprizone treatment,profound demyelination
same,myelin layers in electron micrographs of thin optic nerve cross sections,"[2]; cuprizone-treated animals, no transplant","thinning and disorganization of myelin layers; also recorded: thinning, and disorganization of myelin layers"
same,failure to transmit impulses in VEP recording,[3]; [4],increased failure to transmit impulses
same,latency to N1 in VEP recording from visual cortex,[3]; [4],increased latency to N1
same,average latency (time from visual stimulus to first negative peak in the VEP impulse),"[3]; after cuprizone treatment for nine weeks, no transplant, healthy baseline 276 ms, n=5",371 ms
same,"peak width, shortest half for peak width values","[3]; after demyelination with cuprizone, no transplant, n=5",increased
same,number of missed responses,"[3]; cuprizone-fed animals, no transplant, n=5",greatly increased

# From patent US20240075073A1, “TREATING OPTIC NEURITIS WITH INDUCED PLURIPOTENT STEM CELL-DERIVED OLIGODENDROCYTE PRECURSOR CELLS” (Mayo Foundation for Medical Education and Research, priority 2016, published 2024)
